Results on 17 compounds are retold here after EP0298135A1, “Phenylalanine derivative and proteinase inhibitor” (Okamoto, Shosuke, priority 1987, dated 1989).

Structures can show the parent of a compound that is named as a salt.

Assay type in all cases: biochemical
Assay [1] concerns the target T1, human plasmin (Homo sapiens, UniProt P00747). Put plainly: Antiplasmin activity: inhibition of S-2251 decomposition. The following applies: Table 2; substrate S-2251, pH 7.4, 37°C; read-out: Plasmin S-2251 (concentration I₅₀). The method, then: (ii) Determination of inhibition activity on S-225l decomposition
An inhibitor sample is dissolved in a 0.05 M Tris-hydrochloric acid buffer solution (pH = 7.4) to bring the total volume to 400 µl. To this solution, 50 µl of a 3 mM S-225l solution is added and the mixture is incubated at a temperature of 37°C for 5 minutes in a constant temperature bath. Then 50 µl of a 0.2 casein unit/ml human plasmin is added and the mixture is incubated at a temperature of 37°C for 4 minutes. Thereafter, the reaction is stopped by adding 50 µl of 50% acetic acid.
Thus, the concentration I₅₀ (µmol) of the inhibitor sample, at which the absorbance is one half (i.e., l/2) of that obtained in the absence of the inhibitor, is determined.

Assay [2] has as its target human plasma kallikrein (Homo sapiens, UniProt P03952). Put plainly: Anti-plasma kallikrein activity: inhibition of S-2302 decomposition. The following applies: Table 2; substrate S-2302, pH 7.8, 37°C; read-out: Plasma Kallikrein S-2302 (concentration I₅₀). The method, then: An inhibitor sample is dissolved in a 0.05 M Tris-hydrochloric acid buffer solution (pH = 7.8) to bring the total volume to 400 µl. […] Then, 50 µl of a 0.l2 unit/ml human plasma kallikrein is added and the mixture is incubated at a temperature of 37°C for 5 minutes. Thereafter, 50 µl of 50% acetic acid is added to terminate the reaction. […] Thus, the concentration I₅₀ (µmol) of the inhibitor sample, at which the absorbance is one half (i.e., l/2) of that obtained in the absence of the inhibitor sample, is determined.

Assay [3] concerns the target T2, bovine thrombin (Bos taurus, UniProt P00735). Put plainly: Antithrombin activity: inhibition of S-2238 decomposition. The method, then:
(ii) Determination of inhibition activity on S-2238 decomposition
An inhibitor sample is dissolved in a 0.05 M Tris-hydrochloric acid buffer solution (pH = 8.3) to bring the a total volume to 400 µl. To this solution, 50 µl of a 0.2 mM S-2238 solution is added and the mixture is incubated at a temperature of 37°C for 5 minutes in a constant temperature bath. Then 50 µl of a 0.2 unit/ml bovine thrombin solution is added thereto and the absorbance, at 405 nm, of the p-nitroaniline formed per minute is determined at a temperature of 37°C by using the so-called initial velocity method. Thus, the concentration I₅₀ (µmol) of the inhibitor sample, at which the absorbance is one half (i.e., l/2) of that obtained in the absence of the inhibitor sample, is determined.

Assay [4] deals with human urokinase (Homo sapiens, UniProt P00749). Put plainly: Antiurokinase activity: inhibition of S-2444 decomposition. Particulars: Table 2; substrate S-2444, pH 8.8, 37°C; read-out: Urokinase S-2444 (concentration I₅₀). The method, then:
Determination of inhibition activity for S-2444 decomposition
An inhibitor sample is dissolved in a 0.05 M Tris-hydrochloric acid buffer solution (pH = 8.8) to bring the total volume to 400 µl. To this solution, 50 µl of a l mM S-2444 solution is added and the mixture is incubated at a temperature of 37°C for 5 minutes in a constant temperature bath. Then 50 µl of a 500 unit/ml human urokinase is added and the mixture is incubated at a temperature of 37°C for 5 minutes. Thereafter, 50 µl of 50% acetic acid is added to terminate the reaction. The absorbance of the p-nitroaniline formed in the reaction mixture is measured at 405 nm. Thus, the concentration I₅₀ (µmol) of the inhibitor sample, at which the absorbance is one half (i.e., l/2) of that obtained in the absence of the inhibitor sample, is determined.

In assay [5] the target is T1, human plasmin. Put plainly: Antiplasmin activity: inhibition of fibrin decomposition. The following applies: Table 2; concentration at which fibrin dissolution time is extended twice, pH 7.4, 37°C; read-out: Plasmin Fibrin (concentration I₅₀). The method, then:
(i) Determination of inhibition activity on fibrin decomposition
An inhibitor sample is dissolved in a 0.l8 M borate-physiological salt buffer solution (pH = 7.4) to bring the total volume to 600 µl. To this buffer solution, 200 µl of a 0.2% bovine fibrinogen, l00 µl of a 0.3 casein unit/ml human plasmin solution, and l00 µl of a 50 unit/ml bovine thrombin solution, all dissolved in the above-mentioned buffer, are added at a temperature of 37°C in a constant temperature bath. The dissolution time of the fibrin mass formed above is then determined.

Assay [6] addresses T3, bovine trypsin (Bos taurus, UniProt P00760).
T3 sequence (P00760 24-246): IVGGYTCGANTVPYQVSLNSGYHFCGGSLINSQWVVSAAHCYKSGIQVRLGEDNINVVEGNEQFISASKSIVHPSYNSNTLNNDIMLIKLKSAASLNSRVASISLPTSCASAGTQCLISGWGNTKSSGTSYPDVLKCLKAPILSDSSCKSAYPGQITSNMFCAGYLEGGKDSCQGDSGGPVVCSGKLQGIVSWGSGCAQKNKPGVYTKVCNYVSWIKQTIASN
Put plainly: Antitrypsin activity: inhibition of S-2238 decomposition. Particulars: Table 2; substrate S-2238, pH 8.1, 37°C; read-out: Trypsin S-2238 (concentration I₅₀). The method, then:
Determination of inhibition activity against S-2238 decomposition An inhibitor sample is dissolved in a 0.05 M Tris-imidazole buffer solution (pH = 8.l) and l25 µl of a l mM S-2238 solution is added to bring the total volume to l.20 ml. The mixture is incubated at a temperature of 37°C for 5 minutes in a constant temperature bath. To this mixture, 0.05 ml of bovine trypsin is added and the absorbance, at 405 nm, of the p-nitroaniline formed per minute is determined at a temperature of 37°C by using the so-called initial velocity method. Thus, the concentration I₅₀ (µmol) of the inhibitor sample, at which the absorbance is one half (i.e., l/2) of that obtained in the absence of the inhibitor sample, is determined.

Assay [7] has as its target T2, bovine thrombin. Put plainly: Antithrombin activity: inhibition of fibrin formation from fibrinogen. The method, then:
(i) Determination of inhibition activity against fibrin formation
An inhibitor sample is dissolved in a 0.l8 M borate-physiological salt buffer solution (pH = 7.4) to bring the total volume to 500 µl. To this solution, 400 µl of a 0.2% bovine fibrinogen solution and l00 µl of a 4 unit/ml bovine thrombin solution are added at a temperature of 37°C in a constant temperature bath. Thus, a coagulation time is determined. The inhibitor concentration I₅₀ (µmol), at which the coagulation time obtained in the absence of the inhibitor is extended twice, is determined.

T1 sequence (P00747 581-810 limits assumed): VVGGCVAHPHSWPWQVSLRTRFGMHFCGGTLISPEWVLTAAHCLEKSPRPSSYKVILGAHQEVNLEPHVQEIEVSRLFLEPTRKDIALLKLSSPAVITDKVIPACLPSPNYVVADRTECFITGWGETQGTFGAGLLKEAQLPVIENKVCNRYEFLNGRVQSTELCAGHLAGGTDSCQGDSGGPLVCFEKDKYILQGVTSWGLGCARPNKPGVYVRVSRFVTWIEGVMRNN
T1 sequence (P00747 97-580 partner limits assumed): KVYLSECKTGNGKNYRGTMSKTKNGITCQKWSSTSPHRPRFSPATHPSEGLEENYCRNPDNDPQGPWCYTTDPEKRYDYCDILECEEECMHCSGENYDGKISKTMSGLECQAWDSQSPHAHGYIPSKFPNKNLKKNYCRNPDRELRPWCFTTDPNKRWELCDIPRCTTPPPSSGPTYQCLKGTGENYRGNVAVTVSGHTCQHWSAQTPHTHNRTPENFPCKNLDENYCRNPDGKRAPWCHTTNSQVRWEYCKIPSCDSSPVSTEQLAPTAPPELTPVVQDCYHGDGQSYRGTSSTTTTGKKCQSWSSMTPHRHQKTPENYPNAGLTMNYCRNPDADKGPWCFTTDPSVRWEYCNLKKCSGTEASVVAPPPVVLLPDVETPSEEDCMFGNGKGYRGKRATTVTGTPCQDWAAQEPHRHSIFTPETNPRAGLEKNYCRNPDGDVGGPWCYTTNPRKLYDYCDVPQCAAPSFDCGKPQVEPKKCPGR
human plasma kallikrein, sequence (P03952 391-638 limits assumed): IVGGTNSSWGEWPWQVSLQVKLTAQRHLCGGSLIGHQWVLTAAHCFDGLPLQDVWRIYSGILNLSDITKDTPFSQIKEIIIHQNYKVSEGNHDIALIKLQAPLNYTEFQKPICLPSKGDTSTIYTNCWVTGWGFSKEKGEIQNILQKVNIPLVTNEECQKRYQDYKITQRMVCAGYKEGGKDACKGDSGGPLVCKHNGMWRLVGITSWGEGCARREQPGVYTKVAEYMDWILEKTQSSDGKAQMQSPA
human plasma kallikrein, sequence (P03952 20-390 partner limits assumed): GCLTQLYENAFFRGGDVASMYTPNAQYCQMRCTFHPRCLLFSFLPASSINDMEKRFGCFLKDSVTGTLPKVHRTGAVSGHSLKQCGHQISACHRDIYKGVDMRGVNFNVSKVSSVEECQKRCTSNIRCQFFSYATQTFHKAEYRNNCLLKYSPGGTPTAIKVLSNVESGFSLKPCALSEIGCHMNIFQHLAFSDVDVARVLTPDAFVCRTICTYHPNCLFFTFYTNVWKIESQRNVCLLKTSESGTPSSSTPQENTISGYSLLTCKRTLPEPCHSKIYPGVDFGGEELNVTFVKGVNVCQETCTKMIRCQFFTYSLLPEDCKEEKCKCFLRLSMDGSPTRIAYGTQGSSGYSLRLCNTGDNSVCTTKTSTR

`CN(Cc1ccncc1)C(=O)[C@H](Cc1ccccc1)NC(=O)CCCCCN` [Compound No. 6, N-(6-aminocaproyl)-L-phenylalanine N-methyl-(4-pycoryl)amide dihydrochloride]: the IC50 in assay [1] is greater than 1000 µM; in assay [2] it was greater than 1000 µM; in assay [3] it was greater than 500 µM; in assay [4], greater than 500 µM; in assay [5] it was greater than 1000 µM.

On to `N=C(N)Nc1ccc(C(=O)N[C@@H](Cc2ccc([N+](=O)[O-])cc2)C(=O)Nc2ccc(C(=O)c3ccccc3)cc2)cc1` [Compound No. 23, N-(4-guanidinobenzoyl)-4-nitro-L-phenylalaninine 4-benzoylanilide methanesulfonate], for which the IC50 in assay [1] stood at 89 µM; in assay [2], 11 µM; in assay [4], 11 µM; in assay [6], 0.43 µM.

As to `NCCCC(=O)N[C@@H](Cc1ccccc1)C(=O)Nc1ccc(C(=O)c2ccccc2)cc1` [compound 1], the IC50 in assay [1] was 23 µM; in assay [3] it was greater than 200 µM.

As to `NCCCCCC(=O)N[C@@H](Cc1ccccc1)C(=O)Nc1ccc(C(=O)c2ccccc2)cc1` [compound 4], the IC50 in assay [1] is 39 µM; in assay [6], greater than 200 µM.

Turning to `NCCc1ccc(C(=O)N[C@@H](Cc2ccccc2)C(=O)Nc2ccc(C(=O)c3ccccc3)cc2)cc1` [compound 9], the IC50 in assay [1] turned out to be 30 µM; in assay [2], 31 µM; in assay [4] it was 100 µM; in assay [6] it was 16 µM.

Turning to `COc1ccc(NC(=O)[C@H](Cc2ccccc2)NC(=O)c2ccc(CCN)cc2)cn1` [compound 10, N-[4-(2-aminoethyl)benzoyl]-L-phenylalanine 3-(6-methoxypyridyl)amide dihydrochloride], the figures for the IC50 in assay [1], in assay [2] and in assay [5] were 830 µM, 85 µM and 970 µM, respectively.

Regarding `CC(=O)c1ccc(NC(=O)[C@H](Cc2ccccc2)NC(=O)c2ccc(C(=N)N)cc2)cc1` [compound 11, N-(4-amidinobenzoyl)-L-phenylalanine 4-acetylanilide hydroiodic acid], the IC50 in assay [1] is 23 µM; in assay [2], 0.8 µM; in assay [4], 13 µM; in assay [5] it was 21 µM; in assay [6], 3.6 µM.

In the case of `CC(=O)c1ccc(NC(=O)[C@H](Cc2ccc(OCc3ccccc3)cc2)NC(=O)c2ccc(C(=N)N)cc2)cc1` [compound 12, N-(4-amidinobenzoyl)-4-benzyloxy-L-phenylalanine 4-acetylanilide hydroiodic acid], the IC50 stood at 2.2 µM in assay [1]; 0.3 µM in assay [2]; 4 µM in assay [4]; 0.98 µM in assay [5]; 0.75 µM in assay [6].

`Cc1ccc(NC(=O)[C@H](Cc2ccccc2)NC(=O)c2ccc(NC(=N)N)cc2)cc1` [compound 13, N-(4-guanidinobenzoyl)-L-phenylalanine 4-methylanilide hydrochloride]: the IC50 is greater than 1000 µM in assay [1]; 4.2 µM in assay [2]; 420 µM in assay [4]; greater than 200 µM in assay [5]; 1.3 µM in assay [6].

As to `N=C(N)Nc1ccc(C(=O)N[C@@H](Cc2ccccc2)C(=O)Nc2ccc(C(=O)c3ccccc3)cc2)cc1` [compound 16], the figures for the IC50 in assay [2], in assay [4] and in assay [6] were 3.6 µM, 40 µM and 1.5 µM, respectively.

For `CN(Cc1ccncc1)C(=O)[C@H](Cc1ccccc1)NC(=O)c1ccc(NC(=N)N)cc1` [compound 19], the IC50 in assay [1] is greater than 1000 µM; in assay [7], greater than 1000 µM; in assay [2] it was 1000 µM; in assay [5], greater than 1000 µM.

Regarding `Cc1ccc(NC(=O)[C@H](Cc2ccc(OCc3ccccc3)cc2)NC(=O)c2ccc(NC(=N)N)cc2)cc1C` [compound 24], the IC50 is 21 µM in assay [1]; 5.7 µM in assay [2]; 240 µM in assay [4]; 16 µM in assay [5]; 9.1 µM in assay [6].

With `COc1ccc(NC(=O)[C@H](Cc2ccc(OCc3ccccc3)cc2)NC(=O)c2ccc(NC(=N)N)cc2)cn1` [compound 25], the IC50 in assay [1] was 160 µM; in assay [7] it was greater than 100 µM; in assay [2], 12 µM; in assay [5], 48 µM; in assay [6], 17 µM.

`CN(Cc1ccccc1)C(=O)[C@H](Cc1ccc(OCc2ccccc2)cc1)NC(=O)c1ccc(NC(=N)N)cc1` [compound 28]: the IC50 in assay [1] is 140 µM; in assay [2] it was 170 µM; in assay [6], 110 µM.

As to `N=C(N)NCCCC(=O)N[C@@H](Cc1ccc([N+](=O)[O-])cc1)C(=O)Nc1ccc(C(=O)c2ccccc2)cc1` [compound 29], the IC50 in assay [1] came out at 120 µM; in assay [2], 56 µM; in assay [5], 82 µM; in assay [6] it was 17 µM.

In the case of `N=C(N)NC[C@H]1CC[C@H](C(=O)N[C@@H](Cc2ccc([N+](=O)[O-])cc2)C(=O)Nc2ccc(C(=O)c3ccccc3)cc2)CC1` [compound 31, N-(trans-4-guanidinomethylcyclohexylcarbonyl)-4-nitro-L-phenylalanine 4-benzoylanilide methane sulfonate], the IC50 in assay [1], in assay [2] and in assay [4] was greater than 100 µM each time.

For “N-(4-guanidinobenzoyl)-L-phenylalanine 4-cis/trans-methylcyclohexylamide hydrochloride [Compound No. 20]”, the IC50 in assay [1] is 140 µM; in assay [7] (Table 2, concentration at which coagulation time is extended twice, bovine fibrinogen, pH 7.4, 37°C, read-out: Thrombin Fibrinogen (concentration I₅₀)), greater than 100 µM; in assay [2], 45 µM; in assay [4], 310 µM; in assay [5], 73 µM; in assay [6], 15 µM.
